In patent publication US8802664B2 (Bioproject, priority 2010, dated 2014):
Where a name gives a salt, the structure may show the parent alone.

Target: T1, human H4 receptor (Homo sapiens, UniProt Q9H3N8)
T1 construct: expressed in transfected cells
T1 sequence (Q9H3N8 whole entry): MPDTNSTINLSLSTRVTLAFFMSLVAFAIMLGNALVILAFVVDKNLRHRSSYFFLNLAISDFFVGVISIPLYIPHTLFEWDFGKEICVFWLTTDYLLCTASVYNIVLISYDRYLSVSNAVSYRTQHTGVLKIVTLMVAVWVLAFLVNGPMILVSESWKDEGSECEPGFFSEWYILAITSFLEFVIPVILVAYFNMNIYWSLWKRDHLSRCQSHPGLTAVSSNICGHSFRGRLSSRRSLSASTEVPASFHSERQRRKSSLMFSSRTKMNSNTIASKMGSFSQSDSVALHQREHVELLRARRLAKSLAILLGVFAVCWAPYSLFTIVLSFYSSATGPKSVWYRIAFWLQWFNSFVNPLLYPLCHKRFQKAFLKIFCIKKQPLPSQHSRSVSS
Assay: [3H]Histamine binding on membranes of CHO cells stably expressing human H4 receptor
How it was run: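 Filter-bound counts (liquid scintillation) gave H4 binding. Incubation used 20 μg membrane protein/well in Tris/HCl 50 mM plus EDTA 0.5 mM at pH 7.4, and 10 μM JNJ 7777120 set nonspecific binding. Filtration on GF/B pretreated with polyethyleneimine stopped the reaction.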
For CN1CCC(OC(c2ccc3cc[nH]c3c2)c2nc3ccccc3[nH]2)CC1 (stereo not drawn) [Example 550, 2-[(1H-indol-6-yl)(1-methylpiperidin-4-yloxy)methyl]-1H-benzimidazole], the Ki or IC50 activity class was under 30 nM. CNCCOc1cccc(C(OC2CCN(C)CC2)c2nc3ccccc3s2)c1 (stereo not drawn) [Example 279, (2-{3-[benzothiazol-2-yl(1-methylpiperidin-4-yloxy)methyl]phenoxy}ethyl)methyl-amine] gave a Ki or IC50 activity class of under 1000 nM. With CN1CCC(OC(c2cccc(CCCNC(=O)OC(C)(C)C)c2)c2nc3ccccc3[nH]2)CC1 (stereo not drawn) [Example 313, N-tert-butoxycarbonyl-N′-(3-{3-[(1H-benzimidazol-2-yl)(1-methylpiperidin-4-yloxy)methyl]phenyl}propyl)amine] the Ki or IC50 activity class was under 300 nM. Compound CNC(=O)CSc1cccc(C(OC2CCN(C)CC2)c2nc3ccccc3s2)c1 (stereo not drawn) [Example 259, 2-{3-[benzothiazol-2-yl(1-methylpiperidin-4-yloxy)methyl]phenylsulfanyl}-N-methylacetamide] has a Ki or IC50 activity class of under 300 nM. In the case of CN1CCC(OC(c2cccc(OCc3cccc(F)c3F)c2)c2nc3ccccc3s2)CC1 (stereo not drawn) [Example 161, 2-[[3-(2,3-difluorobenzyloxy)phenyl](1-methylpiperidin-4-yloxy)methyl]benzothiazole], the Ki or IC50 activity class is reported as under 30 nM. CN1CCC(OC(c2cccc(C#CCCCCNC(=N)N)c2)c2nc3ccccc3[nH]2)CC1 (stereo not drawn) [Example 346, N-(6-{3-[(1H-benzimidazol-2-yl)(1-methylpiperidin-4-yloxy)methyl]phenyl}hex-5-ynyl)guanidine] showed a Ki or IC50 activity class of under 300 nM. CN1CCC(COC(c2cccc(Br)c2)c2nc3cc(F)ccc3[nH]2)C1 (stereo not drawn) [Example 449, 2-[(3-bromophenyl)(1-methylpyrrolidin-3-ylmethoxy)methyl]-5-fluoro-1H-benzimidazole] gave a Ki or IC50 activity class of under 30 nM. For CN1CCC(OC(c2cccc(OCCCN3CCOCC3)c2)c2nc3ccccc3s2)CC1 (stereo not drawn) [Example 350, 2-{(1-methylpiperidin-4-yloxy)[3-(3-morpholin-4-yl-propoxy)phenyl]methyl}benzothiazole], the Ki or IC50 activity class was under 1000 nM. Cc1cccc(C(NC2CCN(C)CC2)c2nc3ccccc3[nH]2)c1 (stereo not drawn) [Example 84, [(1H-benzimidazol-2-yl)(m-tolyl)methyl](1-methylpiperidin-4-yl)amine] showed a Ki or IC50 activity class of under 1000 nM. CN1CCC(OC(c2cccc(SCCCCN)c2)c2nc3cc(F)c(F)c(F)c3[nH]2)CC1 (stereo not drawn) [Example 493] gave a Ki or IC50 activity class of under 30 nM. For COc1cccc(COc2cccc(C(NC3CCN(C)CC3)c3nc4ccccc4[nH]3)c2)c1 (stereo not drawn) [Example 125, {(1H-benzimidazol-2-yl)[3-(3-methoxybenzyloxy)phenyl]methyl}(1-methylpiperidin-4-yl)amine], the Ki or IC50 activity class was under 30 nM. CN1CCC(OC(c2cccc(OCC3CCNCC3)c2)c2nc3ccccc3s2)CC1 (stereo not drawn) [Example 377, 2-{(1-methylpiperidin-4-yloxy)[3-(piperidin-4-ylmethoxy)phenyl]methyl}benzothiazole] showed a Ki or IC50 activity class of under 300 nM. In the case of CN1CCC(OC(c2ccc(OC(F)(F)F)cc2)c2nc3ccccc3s2)CC1 (stereo not drawn) [Example 24, 2-[(1-methylpiperidin-4-yloxy)(4-trifluoromethoxyphenyl)methyl]benzothiazole], the Ki or IC50 activity class is reported as under 1000 nM. For CN1CCC(OC(c2nc3ccccc3[nH]2)c2cc(OCCF)ccc2F)CC1 (stereo not drawn) [Example 489], the Ki or IC50 activity class was under 30 nM. Compound CN1CCC(OC(c2nc3ccccc3[nH]2)c2cc(OC(F)(F)F)ccc2F)CC1 (single isomer, unassigned) [Example 435, 2-[(2-fluoro-5-trifluoromethoxyphenyl)(1-methylpiperidin-4-yloxy)methyl]-1H-benzimidazole] has a Ki or IC50 activity class of under 30 nM.

Tested on: not given
Assay: not given
With CN1CCC(NC(c2cccc(-c3ccccc3)c2)c2nc3ccccc3s2)CC1 (stereo not drawn) (as salt: oxalate) [Example 102, (benzothiazol-2-ylbiphenyl-3-ylmethyl)(1-methylpiperidin-4-yl)amine] the melting point was 112 °C. Work on CCCCCCc1cccc(C(NC2CCN(C)CC2)c2nc3ccccc3[nH]2)c1 (stereo not drawn) (as salt: oxalate) [Example 76, [(1H-benzimidazol-2-yl)(3-hexylphenyl)methyl](1-methylpiperidin-4-yl)amine] yielded a melting point of 115 °C. For CN1CCC(OC(c2nc3ccccc3s2)c2ccccc2Cl)CC1 (stereo not drawn) (as salt: oxalate) [Example 281, 2-[(2-Chlorophenyl)(1-methylpiperidin-4-yloxy)methyl]benzothiazole], the melting point was 163 °C. For CCOC(=O)NCCCCC#Cc1cccc(C(OC2CCN(C)CC2)c2nc3ccccc3n2C)c1 (stereo not drawn) (as salt: oxalate) [Example 549, ethyl (6-{3-[(1-methyl-1H-benzimidazol-2-yl)(1-methylpiperidin-4-yloxy)methyl]phenyl}hex-5-ynyl)carbamate], the melting point was 90 °C. With CN1CCC(OC(c2cccc(N3CC4CN(C)CC4C3)c2)c2nc3ccccc3s2)CC1 (stereo not drawn) (as salt: oxalate) [Example 485] the melting point was 131 °C. In the case of CN1CCC(OC(c2cccc(N3CCOCC3)c2)c2nc3ccccc3s2)CC1 (stereo not drawn) (as salt: oxalate) [Example 243, 2-[(1-methylpiperidin-4-yloxy)(3-morpholin-4-yl-phenyl)methyl]benzothiazole], the melting point is reported as 111 °C. Compound CN1CCC(OC(c2cccc(N3CCCC3CN)c2)c2nc3ccccc3s2)CC1 (stereo not drawn) (as salt: oxalate) [Example 482] has a melting point of 145 °C. Compound Cc1cc(F)c(C(OC2CCN(C)CC2)c2nc3ccccc3s2)c(F)c1 (stereo not drawn) (as salt: oxalate) [Example 531] has a melting point of 125 °C. CN1CCC(OC(c2cccc(OCc3ccco3)c2)c2nc3ccccc3s2)CC1 (stereo not drawn) (as salt: oxalate) [Example 267, 2-[[3-(furan-2-ylmethoxy)phenyl](1-methylpiperidin-4-yloxy)methyl]benzothiazole] gave a melting point of 85 °C. For CN1CCC(OC(c2cccc(N3CCC(F)C3)c2)c2nc3ccccc3s2)CC1 (stereo not drawn) (as salt: oxalate) [Example 430, 2-[[3-(3-fluoropyrrolidin-1-yl)phenyl](1-methylpiperidin-4-yloxy)methyl]benzothiazole], the melting point was 70 °C. Compound COc1ccc(F)c(C(OC2CCN(C)CC2)c2nc3ccccc3[nH]2)c1 (stereo not drawn) (as salt: oxalate) [Example 486] has a melting point of 105 °C. With CN1CCC(OC(c2cccc(SC(C)(C)CCO)c2)c2nc3ccccc3s2)CC1 (stereo not drawn) (as salt: oxalate) [Example 242, 3-{3-[benzothiazol-2-yl(1-methylpiperidin-4-yloxy)methyl]phenylsulfanyl}-3-methyl-butan-1-ol] the melting point was 80 °C. In the case of CN1CCC(OC(c2nc3ccccc3[nH]2)c2cc(I)ccc2F)CC1 (stereo not drawn) (as salt: oxalate) [Example 425, 2-[(2-fluoro-5-iodo-phenyl)(1-methylpiperidin-4-yloxy)methyl]-1H-benzimidazole], the melting point is reported as 175 °C. In the case of CN1CCC(OC(c2cccc(CCCCCN)c2)c2nc3ccccc3s2)CC1 (stereo not drawn) (as salt: hydrochloride) [Example 289, 5-{3-[benzothiazol-2-yl(1-methylpiperidin-4-yloxy)methyl]phenyl}pentylamine], the melting point is reported as 110 °C. With CN1CCC(OC(c2cccc(N3CCC(O)CC3)c2)c2nc3ccccc3s2)CC1 (stereo not drawn) (as salt: oxalate) [Example 411, 1-{3-[benzothiazol-2-yl(1-methylpiperidin-4-yloxy)methyl]phenyl}piperidin-4-ol] the melting point was 110 °C.
